The record followed here is ChEMBL document CHEMBL2321730, “Development of κ opioid receptor antagonists” (J Med Chem, 2013).

Where a SMILES comes first, the peptide text is derived from it. [ ]: non-standard residue; d: D form.

The target in assay [1] is Delta-type opioid receptor (Homo sapiens, UniProt P41143). The experiment in a line: Antagonist activity at DOR (unknown origin) by [35S]GTPgammaS assay. Format: functional.
Assay [2] addresses T1, Kappa-type opioid receptor (Homo sapiens, UniProt P41145). The experiment in a line: Antagonist activity at KOR (unknown origin) by [35S]GTPgammaS binding assay.
For assay [3], the target named is Mu-type opioid receptor (Homo sapiens, UniProt P35372). The experiment in a line: Antagonist activity at MOR (unknown origin) by [35S]GTPgammaS binding assay.
Sequence of Mu-type opioid receptor (P35372 whole entry): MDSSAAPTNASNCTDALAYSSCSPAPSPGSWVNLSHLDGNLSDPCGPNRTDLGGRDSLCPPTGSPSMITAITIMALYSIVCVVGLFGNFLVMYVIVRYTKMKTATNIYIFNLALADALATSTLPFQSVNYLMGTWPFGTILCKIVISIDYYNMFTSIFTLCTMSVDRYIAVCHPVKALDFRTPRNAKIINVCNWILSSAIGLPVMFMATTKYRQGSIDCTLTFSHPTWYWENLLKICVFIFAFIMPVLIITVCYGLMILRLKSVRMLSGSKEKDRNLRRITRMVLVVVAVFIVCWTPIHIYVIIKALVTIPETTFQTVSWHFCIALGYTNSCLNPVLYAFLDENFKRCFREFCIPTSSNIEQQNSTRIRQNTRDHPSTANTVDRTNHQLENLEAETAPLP
Assay [4] addresses T1, Kappa-type opioid receptor. The experiment in a line: Binding affinity to KOR (unknown origin).
Assay [5] concerns the target T1, Kappa-type opioid receptor. Briefly: Inhibition of dynorphin A (1-13) NH2 binding to KOR (unknown origin) by adenylyl cyclase assay. Format: functional.
The subject of assay [6] is Mus musculus. The experiment in a line: Antinociceptive activity in icv dosed C57B1/6J mouse assessed as tail withdrawal latency measured in every 10 mins for 1 hr by warm water tail withdrawal assay. Format: functional, organism-based.
Assay [7] has as its target Kappa-type opioid receptor (Rattus norvegicus, UniProt P34975). Briefly: Displacement of [3H]diprenorphine from rat cloned KOR expressed in CHO cells after 90 mins by scintillation counting analysis. A general note: Displacement assays read how much labelled ligand stays bound in the presence of the test substance.
Assay [8] can be described thus: Displacement of DPDPE from DOR in guinea pig brain membrane fraction after 30 mins by scintillation counting analysis. Format: cell membranes, Cavia porcellus.
Assay [9] deals with Mus musculus. The experiment in a line: Antinociceptive activity in C57B1/6J mouse at 10 nmol, icv administered 80 mins prior to U50488 addition by warm water tail withdrawal assay. The format is functional.
Assay [10] relates to Rattus norvegicus. Briefly: In vivo receptor occupancy at DOR in po dosed Harlan Sprague-Dawley rat brain after 5.5 hrs by LC/MS/MS analysis. Format: functional.
For assay [11], the system named is Rattus norvegicus. Briefly: In vivo receptor occupancy at MOR in po dosed Harlan Sprague-Dawley rat brain after 5.5 hrs by LC/MS/MS analysis. Format: functional.

T1 sequence (P41145 whole entry): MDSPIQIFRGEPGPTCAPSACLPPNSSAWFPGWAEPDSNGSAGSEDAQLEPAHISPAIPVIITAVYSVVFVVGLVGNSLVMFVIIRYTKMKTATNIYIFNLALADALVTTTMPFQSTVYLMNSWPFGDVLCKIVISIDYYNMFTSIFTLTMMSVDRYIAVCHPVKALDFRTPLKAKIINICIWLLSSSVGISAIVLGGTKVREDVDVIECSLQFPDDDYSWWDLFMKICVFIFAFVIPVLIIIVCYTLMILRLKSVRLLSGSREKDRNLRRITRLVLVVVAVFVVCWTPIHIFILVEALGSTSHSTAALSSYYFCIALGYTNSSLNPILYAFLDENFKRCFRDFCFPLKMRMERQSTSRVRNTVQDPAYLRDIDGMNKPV
Sequence of Kappa-type opioid receptor (Rattus norvegicus, UniProt P34975) (P34975 whole entry): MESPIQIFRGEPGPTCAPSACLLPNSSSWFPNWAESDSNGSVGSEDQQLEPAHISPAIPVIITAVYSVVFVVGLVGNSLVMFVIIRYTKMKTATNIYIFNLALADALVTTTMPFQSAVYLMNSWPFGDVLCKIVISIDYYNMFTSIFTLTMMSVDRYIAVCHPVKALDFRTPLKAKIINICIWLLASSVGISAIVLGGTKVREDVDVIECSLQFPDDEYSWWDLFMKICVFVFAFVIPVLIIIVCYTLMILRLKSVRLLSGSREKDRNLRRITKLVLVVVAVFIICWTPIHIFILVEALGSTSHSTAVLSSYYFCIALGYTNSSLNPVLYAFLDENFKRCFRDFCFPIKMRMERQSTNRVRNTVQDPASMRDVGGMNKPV
Sequence of Delta-type opioid receptor (P41143 whole entry): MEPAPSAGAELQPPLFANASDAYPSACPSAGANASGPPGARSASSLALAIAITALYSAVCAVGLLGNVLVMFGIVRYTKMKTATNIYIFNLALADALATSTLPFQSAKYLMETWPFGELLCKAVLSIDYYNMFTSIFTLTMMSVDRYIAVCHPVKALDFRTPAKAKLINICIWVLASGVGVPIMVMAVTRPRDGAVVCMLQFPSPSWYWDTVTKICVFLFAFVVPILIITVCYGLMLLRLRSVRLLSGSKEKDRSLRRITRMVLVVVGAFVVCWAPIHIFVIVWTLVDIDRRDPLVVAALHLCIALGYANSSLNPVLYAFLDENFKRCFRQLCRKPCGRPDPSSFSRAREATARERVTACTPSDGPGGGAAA

In the case of `O=C(Nc1cccc(NC(=O)c2cccc(N3CCCCC3)c2)c1)c1cccc(OC2CCN(CC3CC3)CC2)c1`, the IC50 (as a rule, the concentration needed to halve the response being measured) is > 30000 nM in assay [1], 77 nM in [2] and > 30000 nM in assay [3]. Also, in [4], affinity was put at a Ki of 0.5 nM.

On to `CC[C@H](C)[C@@H]1NC(=O)[C@H](CCCNC(=N)N)NC(=O)[C@@H](NC(=O)[C@H](Cc2ccccc2)NC(=O)CNC(=O)CNC(=O)[C@H](Cc2ccc(O)cc2)NCc2ccccc2)CC(=O)NC[C@@H](C(=O)N[C@@H](CCCNC(=N)N)C(=O)N2CCC[C@H]2C(=O)N[C@@H](CCCCN)C(N)=O)NC1=O`, for which the Kb in [5] is 84 nM.

With `O=C1N[C@@H](Cc2ccccc2)C(=O)N2CCC[C@@H]2C(=O)N[C@@H](Cc2ccccc2)C(=O)N[C@H]1Cc1c[nH]c2ccccc12` (cyclo(FWF[dP])), the EC50 in [6] was 3.71 nmol. Moreover, the Ki – broadly, the dissociation constant of the complex between target and ligand, obtained from inhibition or displacement – in assay [7] stood at 35.4 nM. Moreover, the IC50 in [8] amounted to 2600 nM.

Take `O=C1N[C@H](Cc2c[nH]c3ccccc23)C(=O)N[C@@H](Cc2ccccc2)C(=O)N2CCC[C@@H]2C(=O)N[C@H]1Cc1ccccc1` (cyclo(F[dP]F[dW])): the Activity in assay [9] worked out at 10%. In assay [7], this molecule had a Ki of 30.6 nM.

`Cc1cc(C)cc([C@@H]2CCCN2Cc2ccc(Oc3ccc(C(N)=O)cc3F)cc2)c1` [ATICAPRANT]: the ED50 in assay [10] and in assay [11] was > 30 mg/kg each time.
